# Reference: patent US12239636B2, “Combined sirolimus and nintedanib therapy for vascular lesions and hereditary hemorrhagic telangiectasia” (THE FEINSTEIN INSTITUTES FOR MEDICAL RESEARCH, priority 2018, dated 2025)
# Like-named read-outs stand apart in the source and are kept apart here.
# Experiments:
# neonatal retina = experiment: Dose finding: physiological retinal vascular development in pups; settings: i.p. injection of pups, Nin every third day, not before P5
# VEGFR2 [1] = target: T1, VEGFR2 (Mus musculus, UniProt P35918); experiment: phospho-VEGFR2 in liver ECs and retina of tBMP9/10ib mice; assay type: in vivo
# T1 construct: protein homogenates of liver ECs isolated from tBMP9/10ib mice; from tissue; host or cells: liver endothelial cells and retina of tBMP9/10ib mice
# VEGFR2 [2] = target: T2, VEGFR2 (Homo sapiens, UniProt P35968); experiment: VEGF-induced VEGFR2 activation in primary ECs; assay type: cell-based
# T2 construct: endogenous in cells; host or cells: primary ECs
# [3] = LC-MS serum drug concentrations in injected pups
# tBMP9/10ib mice [4] = experiment: Prevention of retinal vascular pathology in tBMP9/10ib HHT mice (treatment P3-P5, analysis at P6)
# Procedure: Mouse pups were administered preventively and daily with Siro from P3 to P5 (0.5 mg/kg, i.p.) and with Nin at P5 (0.3 mg/kg, i.p.). Mice were then analyzed at P6, a time point at which retinal vessel dilation, hypervascularization, and AVMs can readily be observed and quantified in this model.
# [5] = mouse, in vivo
# tBMP9/10ib mice [6] = settings: 0.5 mg/kg, P3-P5, i.p.; Ruiz et al., 2017; cited from earlier work
# [7] = tBMP9/10ib retinas at P6, Siro 0.5 mg/kg i.p. P3-P5, Nin 0.3 mg/kg i.p. at P5
# T1 sequence (P35918 20-1345): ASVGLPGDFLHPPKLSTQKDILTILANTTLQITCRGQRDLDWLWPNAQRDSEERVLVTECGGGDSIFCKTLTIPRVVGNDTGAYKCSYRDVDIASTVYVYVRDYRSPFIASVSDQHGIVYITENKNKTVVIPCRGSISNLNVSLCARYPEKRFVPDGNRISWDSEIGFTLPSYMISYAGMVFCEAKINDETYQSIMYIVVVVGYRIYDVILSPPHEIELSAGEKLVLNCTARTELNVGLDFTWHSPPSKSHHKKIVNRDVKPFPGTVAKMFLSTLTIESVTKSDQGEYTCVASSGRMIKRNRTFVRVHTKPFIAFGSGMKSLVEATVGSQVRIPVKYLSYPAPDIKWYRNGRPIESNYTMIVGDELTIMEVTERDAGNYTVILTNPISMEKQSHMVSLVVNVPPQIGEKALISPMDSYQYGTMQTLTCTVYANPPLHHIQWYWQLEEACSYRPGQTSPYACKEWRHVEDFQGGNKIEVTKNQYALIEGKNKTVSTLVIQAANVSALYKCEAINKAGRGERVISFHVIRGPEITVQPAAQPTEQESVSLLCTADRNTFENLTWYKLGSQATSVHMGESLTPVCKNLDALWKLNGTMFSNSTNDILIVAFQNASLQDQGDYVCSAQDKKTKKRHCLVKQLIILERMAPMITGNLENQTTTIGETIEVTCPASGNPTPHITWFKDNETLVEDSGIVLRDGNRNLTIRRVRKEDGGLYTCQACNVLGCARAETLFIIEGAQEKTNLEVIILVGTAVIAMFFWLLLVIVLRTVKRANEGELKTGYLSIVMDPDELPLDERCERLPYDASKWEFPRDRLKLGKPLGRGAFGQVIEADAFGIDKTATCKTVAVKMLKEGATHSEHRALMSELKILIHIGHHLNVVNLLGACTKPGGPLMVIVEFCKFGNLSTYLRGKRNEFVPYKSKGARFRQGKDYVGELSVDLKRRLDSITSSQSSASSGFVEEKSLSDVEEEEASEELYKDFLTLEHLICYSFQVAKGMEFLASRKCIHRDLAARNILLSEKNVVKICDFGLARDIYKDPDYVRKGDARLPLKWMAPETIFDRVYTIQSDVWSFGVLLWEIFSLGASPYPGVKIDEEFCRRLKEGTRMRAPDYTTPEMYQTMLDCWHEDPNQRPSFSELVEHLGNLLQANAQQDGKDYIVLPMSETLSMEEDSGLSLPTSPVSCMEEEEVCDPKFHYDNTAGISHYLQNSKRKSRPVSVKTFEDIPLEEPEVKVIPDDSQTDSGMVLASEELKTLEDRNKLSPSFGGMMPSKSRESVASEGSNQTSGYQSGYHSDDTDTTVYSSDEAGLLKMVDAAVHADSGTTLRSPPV
# T2 sequence (P35968 20-1356, species assumed): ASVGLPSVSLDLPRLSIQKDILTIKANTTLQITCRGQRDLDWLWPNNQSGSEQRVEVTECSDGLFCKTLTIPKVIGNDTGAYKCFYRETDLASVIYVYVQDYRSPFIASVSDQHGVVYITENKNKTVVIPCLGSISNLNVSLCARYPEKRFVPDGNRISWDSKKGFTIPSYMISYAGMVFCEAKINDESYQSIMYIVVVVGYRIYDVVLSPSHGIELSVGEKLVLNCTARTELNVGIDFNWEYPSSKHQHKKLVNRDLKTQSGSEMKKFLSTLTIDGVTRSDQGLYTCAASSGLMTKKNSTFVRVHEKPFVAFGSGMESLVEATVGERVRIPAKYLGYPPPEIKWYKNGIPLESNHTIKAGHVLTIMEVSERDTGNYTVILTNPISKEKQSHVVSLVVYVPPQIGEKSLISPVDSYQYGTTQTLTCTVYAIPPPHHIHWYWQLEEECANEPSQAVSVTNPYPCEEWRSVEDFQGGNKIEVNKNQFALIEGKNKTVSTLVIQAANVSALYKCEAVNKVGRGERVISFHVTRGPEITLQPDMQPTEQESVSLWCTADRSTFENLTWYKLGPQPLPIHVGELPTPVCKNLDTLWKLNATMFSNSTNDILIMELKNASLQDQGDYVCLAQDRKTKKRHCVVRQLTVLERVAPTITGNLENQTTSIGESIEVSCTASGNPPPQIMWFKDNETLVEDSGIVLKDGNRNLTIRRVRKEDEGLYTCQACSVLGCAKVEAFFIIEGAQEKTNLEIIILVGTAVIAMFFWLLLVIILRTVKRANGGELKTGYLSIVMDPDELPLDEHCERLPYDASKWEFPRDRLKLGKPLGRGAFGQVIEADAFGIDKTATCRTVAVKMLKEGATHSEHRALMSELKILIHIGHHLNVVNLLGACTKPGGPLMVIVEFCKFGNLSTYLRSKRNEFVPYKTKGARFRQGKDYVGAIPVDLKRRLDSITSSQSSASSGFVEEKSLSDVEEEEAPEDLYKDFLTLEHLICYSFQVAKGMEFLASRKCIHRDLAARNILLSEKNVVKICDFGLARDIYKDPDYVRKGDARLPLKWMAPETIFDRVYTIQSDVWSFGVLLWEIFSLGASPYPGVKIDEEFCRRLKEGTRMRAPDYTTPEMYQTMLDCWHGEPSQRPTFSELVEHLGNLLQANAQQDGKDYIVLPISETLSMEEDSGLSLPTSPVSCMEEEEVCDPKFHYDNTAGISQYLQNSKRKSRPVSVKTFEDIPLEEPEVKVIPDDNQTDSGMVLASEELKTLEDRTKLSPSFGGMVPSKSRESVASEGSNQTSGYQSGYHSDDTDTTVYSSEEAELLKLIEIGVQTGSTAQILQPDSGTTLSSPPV
Structure (SMILES),highest dose that did not affect normal vascular development (neonatal retina),elevation of activated phospho-VEGFR2 (p-VEGFR2) (VEGFR2 [1]),VEGF-induced VEGFR2 activation (VEGFR2 [2]),"average serum concentration ([3]; injected P6 pups, Siro 0.5 mg/kg i.p., Nin 0.3 mg/kg i.p.)","average serum concentration ([3]; pup serum at P9, three additional days of treatment)","vascular pathology (tBMP9/10ib mice [4]; HHT mice, sirolimus 0.5 mg/kg/day, nintedanib 0.3 mg/kg/day, alone or combined)",AVM diameter (tBMP9/10ib mice [4]; [7]),increase in density of the vascular plexus (tBMP9/10ib mice [4]; [7]),vein dilation (tBMP9/10ib mice [4]; [7]),"AVM number (tBMP9/10ib mice [4]; tBMP9/10ib retinas at P6, Siro 0.5 mg/kg i.p. P3-P5, Nin 0.3 mg/kg i.p. at P5, mean)",average serum concentration [5],increase in density of the vascular plexus (tBMP9/10ib mice [6]),vein dilation (tBMP9/10ib mice [6])
"COC(=O)c1ccc2c(c1)NC(=O)/C2=C(\Nc1ccc(N(C)C(=O)CN2CCN(C)CC2)cc1)c1ccccc1 [Nin, nintedanib]",0.3 mg/kg,significantly inhibited,fully inhibited,5.3 nM,24.7 nM,moderate-to-negligible effect,failed to reduce,failed to reduce,failed to reduce,failed to reduce,–,–,–
"CO[C@H]1C[C@@H]2CC[C@@H](C)[C@@](O)(O2)C(=O)C(=O)N2CCCC[C@H]2C(=O)O[C@H]([C@H](C)C[C@@H]2CC[C@@H](O)[C@H](OC)C2)CC(=O)[C@H](C)/C=C(\C)[C@@H](O)[C@@H](OC)C(=O)[C@H](C)C[C@H](C)/C=C/C=C/C=C/1C [Siro, sirolimus]",0.5 mg/kg,–,–,–,–,–,–,–,–,–,22.6 nM,–,–
"C=CC[C@@H]1/C=C(\C)C[C@H](C)C[C@H](OC)[C@H]2O[C@@](O)(C(=O)C(=O)N3CCCC[C@H]3C(=O)O[C@H](/C(C)=C/[C@@H]3CC[C@@H](O)[C@H](OC)C3)[C@H](C)[C@@H](O)CC1=O)[C@H](C)C[C@@H]2OC [Tac, tacrolimus]",–,–,–,–,–,–,–,–,–,–,–,prevented,prevented
